Structures are written as SMILES. pIC50: −log10 of the molar value.

T1 sequence (Q92633 whole entry): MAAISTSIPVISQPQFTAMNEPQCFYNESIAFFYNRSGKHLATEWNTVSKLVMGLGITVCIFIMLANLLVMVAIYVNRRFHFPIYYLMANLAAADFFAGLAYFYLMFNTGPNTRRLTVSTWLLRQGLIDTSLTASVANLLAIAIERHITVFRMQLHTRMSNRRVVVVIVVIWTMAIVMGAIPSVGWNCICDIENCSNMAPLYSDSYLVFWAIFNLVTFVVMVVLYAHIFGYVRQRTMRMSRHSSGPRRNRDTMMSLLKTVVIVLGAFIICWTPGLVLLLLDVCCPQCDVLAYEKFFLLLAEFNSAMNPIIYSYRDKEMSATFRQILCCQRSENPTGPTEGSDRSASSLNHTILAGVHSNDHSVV

This test addresses T1, human LPA1 (Homo sapiens, UniProt Q92633).
T1 construct: the full-length cDNA for human LPA1 was obtained by PCR of the reverse transcription reaction; expressed in transfected cells
As to the kind of experiment: LPA1 calcium flux assay. Type of test: cell-based. Conditions: CHO cells expressing human LPA1, stimulated with 10 nM LPA; read-out: HLPA1 Ca Flux IC50. The protocol:
A 1.1 kb cDNA encoding the human LPA1 receptor was cloned from human lung. Human lung RNA (Clontech Laboratories, Inc. USA) was reverse transcribed using the RETROscript kit (Ambion, Inc.) and the full-length cDNA for human LPA1 was obtained by PCR of the reverse transcription reaction. The nucleotide sequence of the cloned human LPA1 was determined by sequencing and confirmed to be identical to the published human LPA1 sequence (An et al. Biochenm. Biophys. Res. Commun. 231:619 (1997). The cDNA was cloned into the pCDNA5/FRT expression plasmid and transfected in CHO cells using lipofectamine 2000 (Invitrogen Corp., USA). Clones stably expressing human LPA1 were selected using hygromycin and identified as cells that show Ca-influx in response to LPA.
Human LPA1 or LPA3 expressing CHO cells are seeded at 20,000-45,000 cells per well in a 96-well poly-D-lysine coated plate one or two days before the assay. Prior to the assay, the cells are washed once with PBS and then cultured in serum-free media overnight. On the day of the assay, a calcium indicator dye (Calcium 4, Molecular Devices) in assay buffer (HBSS with Ca^2+ and Mg^2+ and containing 20 mM Hepes and 0.3% fatty-acid free human serum albumin) is added to each well and incubation continued for 1 hour at 37° C. 10 μl of test compounds in 2.5% DMSO are added to the cells and incubation continued at room temperature for 30 minutes. Cells are the stimulated by the addition of 10 nM LPA and intracellular Ca^2+ measured using the Flexstation 3 (Molecular Devices). IC50s are determined using Graphpad prism analysis of drug titration curves.
A word on the pIC50: it is −log10 of the IC50, conventionally taken in molar units. Take `Cc1noc(-c2ccc(-c3ccc(C4(C(=O)O)CC4)cc3)cc2)c1CCN(Cc1ccccc1)S(C)(=O)=O` [Compound 1-143, 1-(4′-{4-[2-(Benzyl-methanesulfonyl-amino)-ethyl]-3-methyl-isoxazol-5-yl}-biphenyl-4-yl)-cyclopropanecarboxylic acid]: the pIC50 was 4.30 to 6.00.
In the case of `Cc1noc(-c2ccc(-c3ccc(C4(C(=O)O)CC4)cc3)cc2)c1Nc1ccccn1` [Compound 1-296, 1-{4′-[3-Methyl-4-(pyridin-2-ylamino)-isoxazol-5-yl]-biphenyl-4-yl}-cyclopropanecarboxylic acid] it was less than 4.30.
For the molecule `Cc1noc(-c2ccc(-c3ccc([C@H]4C[C@H]4C(=O)O)cc3)cc2)c1C(O)CCCc1ccccc1` (relative stereo) [Compound 1-144, (cis)-2-{4′-[4-(1-Hydroxy-4-phenyl-butyl)-3-methyl-isoxazol-5-yl]-biphenyl-4-yl}-cyclopropanecarboxylic acid], the pIC50 was greater than 6.52.
As to `Cc1noc(-c2ccc(-c3ccc(CC(=O)O)cc3)cc2)c1NC(C)CCc1cccc(C(F)(F)F)c1` (stereo not drawn) [Compound 1-181, (4′-{3-Methyl-4-[1-methyl-3-(3-trifluoromethyl-phenyl)-propylamino]-isoxazol-5-yl}-biphenyl-4-yl)-acetic acid], the pIC50 is 6.00 to 6.52.
The result for `Cc1noc(-c2ccc(-c3ccc(C4(C(=O)O)CC4)cc3)cc2)c1NC(=O)CCc1ccccc1` [Compound 1-4, 1-{4′-[3-Methyl-4-(3-phenyl-propionylamino)-isoxazol-5-yl]-biphenyl-4-yl}-cyclopropanecarboxylic acid] reads 4.30 to 6.00; that for `Cc1noc(-c2ccc(-c3ccc(C4(C(=O)O)CC4)cc3)cc2)c1CC(=O)N(C)Cc1ccccc1F` [Compound 1-91, 1-[4′-(4-{[(2-Fluoro-benzyl)-methyl-carbamoyl]-methyl}-3-methyl-isoxazol-5-yl)-biphenyl-4-yl]-cyclopropanecarboxylic acid], greater than 6.52; that for `Cc1noc(-c2ccc(-c3ccc(CCC(=O)O)cc3)cc2)c1NC(C)CCc1cccc(C(F)(F)F)c1` (single isomer, unassigned) [Compound 1-235, 3-(4′-{3-Methyl-4-[1-methyl-3-(3-trifluoromethyl-phenyl)-propylamino]-isoxazol-5-yl}-biphenyl-4-yl)-propionic acid], greater than 6.52.
In the case of `Cc1noc(-c2ccc(-c3ccc(C4(C(=O)O)CC4)cc3)cc2)c1CN(C)CC(C)c1ccccc1` (stereo not drawn) [Compound 1-87, 1-[4′-(3-Methyl-4-{[methyl-(2-phenyl-propyl)-amino]-methyl}-isoxazol-5-yl)-biphenyl-4-yl]-cyclopropanecarboxylic acid] it was greater than 6.52.
The result for `CC(=O)N(CCc1ccccc1)Cc1c(C)noc1-c1ccc(-c2ccc(C3(C(=O)O)CC3)cc2)cc1` [Compound 1-30, 1-(4′-{4-[(Acetyl-phenethyl-amino)-methyl]-3-methyl-isoxazol-5-yl}-biphenyl-4-yl)-cyclopropanecarboxylic acid] reads greater than 6.52; that for `Cc1noc(-c2ccc(-c3ccc(C4(C(=O)O)CC4)cc3)cc2)c1C(O)COCc1ccccc1` (single isomer, unassigned) [Compound 1-198, 1-{4′-[4-(2-Benzyloxy-1-hydroxy-ethyl)-3-methyl-isoxazol-5-yl]-biphenyl-4-yl}-cyclopropanecarboxylic acid], greater than 6.52; that for `Cc1noc(-c2ccc(-c3ccc(C4(C(=O)O)CC4)cc3)cc2)c1CCC(=O)N1Cc2ccccc2C1` [Compound 1-107, 1-(4′-{4-[3-(1,3-Dihydro-isoindol-2-yl)-3-oxo-propyl]-3-methyl-isoxazol-5-yl}-biphenyl-4-yl)-cyclopropanecarboxylic acid], less than 4.30.
As to `Cc1noc(-c2ccc(-c3ccc(C4(C(=O)O)CC4)cc3)cc2)c1CCN(Cc1ccccc1)Cc1ccccc1` [Compound 1-37, 1-{4′-[4-(2-Dibenzylamino-ethyl)-3-methyl-isoxazol-5-yl]-biphenyl-4-yl}-cyclopropanecarboxylic acid], the negative-log IC50 (pIC50) was 4.30 to 6.00.

Source of the values: patent US9624182B2, “Compounds as lysophosphatidic acid receptor antagonists” (Amira Pharmaceuticals, Inc., priority 2009, dated 2017).
